Measurements: US8664201B2 (priority 2008, dated 2014)
Values joined by “and” are separate entries in the source; they are usually repeats but may differ in a detail not shown here. Equal values may be shown once. Where a name gives a salt, the structure may show the parent alone. Marks after values point to notes of the source that are not given here.

Assays:
MX-1 Human Breast Tumor = conditions: mouse, in vivo, ip
Lewis lung murine tumor = conditions: mouse, in vivo, ip
advanced cancer = test: Treatment of patients with advanced cancer with IPM.(LYS)2; assay type: in vivo, human
Procedure: One patient (cohort) was treated per dose escalation every 21-28 days to allow for toxicity presentation. Doses were escalated by 40% if there were no serious toxic events.

[1] = Estimated comparable human intravenous dosages
[2] = Acute toxicity, three daily IV bolus injections in mice (IPM lysine salt, IPM parent control); assay type: in vivo; conditions: for intravenous LD10 / intravenous LD50: IV daily × 3 days
Procedure: This example describes the evaluation of the acute toxicity of isophosphoramide mustard lysine salt, following three days of daily intravenous (bolus) injection in mice. This study consisted of two phases.
The second main study phase consisted of eight treatment groups (five mice/sex/group) that received the test article as a single daily dose for three consecutive days at respective dose levels of 50, 75, 100, 200, 300, 400, 500, and 600 mg/kg. An additional group (5 mice/sex) served as a parent compound control and received the isophosphoramide mustard parent compound in the same manner, at a dose level of 150 mg/kg. The vehicle was 0.9% sodium chloride for injection, USP and all doses were at a constant volume of 15 mL/kg.
Observations for mortality, morbidity, and the availability of food and water were conducted twice daily for all animals. Observations for clinical signs were conducted daily during the study (approximately one and four hours postdose on Days 1, 2, and 3, and once daily on non-dosing days). Body weights for all surviving animals were measured and recorded the second day after receipt, prior to randomization, and on Days-1 and 7. Body weights also were measured on all surviving main study phase animals on Day 14. Macroscopic evaluations were performed on each main study animal at necropsy (Day 15).
Eight main study treatment groups received the test article as a single daily dose for three consecutive days via intravenous (bolus) injection at respective dose levels of 50, 75, 100, 200, 300, 400, 500, and 600 mg/kg. An additional group (five mice/sex) served as a parent compound control and received the Isophosphoramide Mustard Parent Compound in the same manner at a dose level of 150 mg/kg. All doses were at a volume of 15 mL/kg and based on the most recent body weight.

Q: Which “MTD Dosage” value (MX-1 Human Breast Tumor) does the source give for `O=P(O)(NCCCl)NCCCl` [IPM lysine salt, isophosphoramide mustard lysine salt] here?
A: 93.2 mg/kg/dose

Q: And the T-C (MX-1 Human Breast Tumor)?
A: 10.2* days

Q: And the “superiority to IPM at comparable dosing” value (MX-1 Human Breast Tumor)?
A: 8 fold

Q: What about the “MTD Dosage” value (Lewis lung murine tumor) of the same compound?
A: 93.2 mg/kg/dose

Q: And the T-C (Lewis lung murine tumor)?
A: 8.3* days

Q: What about the “increase of the MTD (mg/kg/dose) of the salt over parent drug” value (Lewis lung murine tumor) of the same compound?
A: 2 fold

Q: What about the “serious toxicity in patients” value (advanced cancer; 30, 42, 59 and 83 mg/m^2 daily IV for 3 days, one patient each) of the same compound?
A: without serious toxicity

Q: And the disease response (advanced cancer; one patient with rectal cancer, 83 mg/m^2 daily IV for 3 days)?
A: stabilization of their disease

Q: What about the “estimated MTD in humans (1/10 the LD10 in mice)” value [1] of the same compound?
A: 40 mg/m^2/d

Q: What about the “Comparable Human IV Dosage” value ([1]; estimated from mouse sub-acute IV LD10) of the same compound?
A: 40 mg/m^2/d

Q: What about the “Cumulative Mortality, female” value ([2]; 50 mg/kg IV daily × 3) of the same compound?
A: 0/5

Q: What about the “Cumulative Mortality, male” value ([2]; 50 mg/kg IV daily × 3) of the same compound?
A: 0/5

Q: And the “Cumulative Mortality, total” value ([2]; 50 mg/kg IV daily × 3)?
A: No mice died

Q: What about the “Cumulative Mortality, total” value ([2]; 50 mg/kg IV daily × 3, listed as IPM Lysine Salt) of the same compound?
A: No animals died and 0/10

Q: What about the “Cumulative Mortality, female” value ([2]; 75 mg/kg IV daily × 3) of the same compound?
A: 0/5

Q: And the “Cumulative Mortality, male” value ([2]; 75 mg/kg IV daily × 3)?
A: 0/5

Q: And the “Cumulative Mortality, total” value ([2]; 75 mg/kg IV daily × 3)?
A: No mice died

Q: What about the “Cumulative Mortality, total” value ([2]; 75 mg/kg IV daily × 3, listed as IPM Lysine Salt) of the same compound?
A: No animals died and 0/10

Q: What about the “Cumulative Mortality, female” value ([2]; 100 mg/kg IV daily × 3) of the same compound?
A: 0/5

Q: And the “Cumulative Mortality, male” value ([2]; 100 mg/kg IV daily × 3)?
A: 1/5

Q: What about the “Cumulative Mortality, total” value ([2]; 100 mg/kg IV daily × 3) of the same compound?
A: 1 of 10

Q: And the “Cumulative Mortality, total” value ([2]; 100 mg/kg IV daily × 3, listed as IPM Lysine Salt)?
A: 1 of 10 and 1/10

Q: What about the “Cumulative Mortality, female” value ([2]; 200 mg/kg IV daily × 3) of the same compound?
A: 3/5

Q: What about the “Cumulative Mortality, male” value ([2]; 200 mg/kg IV daily × 3) of the same compound?
A: 0/5

Q: And the “Cumulative Mortality, total” value ([2]; 200 mg/kg IV daily × 3)?
A: No mice died

Q: What about the “Cumulative Mortality, total” value ([2]; 200 mg/kg IV daily × 3, listed as IPM Lysine Salt) of the same compound?
A: 3 of 10 and 3/10

Q: And the “Cumulative Mortality, female” value ([2]; 300 mg/kg IV daily × 3)?
A: 5/5

Q: What about the “Cumulative Mortality, male” value ([2]; 300 mg/kg IV daily × 3) of the same compound?
A: 4/5

Q: What about the “Cumulative Mortality, total” value ([2]; 300 mg/kg IV daily × 3) of the same compound?
A: 9 out of 10

Q: What about the “Cumulative Mortality, total” value ([2]; 300 mg/kg IV daily × 3, listed as IPM Lysine Salt) of the same compound?
A: 9 of 10 and 9/10

Q: And the “Cumulative Mortality, female” value ([2]; 400 mg/kg IV daily × 3)?
A: 5/5

Q: What about the “Cumulative Mortality, male” value ([2]; 400 mg/kg IV daily × 3) of the same compound?
A: 5/5

Q: What about the “Cumulative Mortality, total” value ([2]; 400 mg/kg IV daily × 3) of the same compound?
A: all mice died

Q: And the “Cumulative Mortality, total” value ([2]; 400 mg/kg IV daily × 3, listed as IPM Lysine Salt)?
A: all animals died and 10/10

Q: What about the “Cumulative Mortality, female” value ([2]; 500 mg/kg IV daily × 3) of the same compound?
A: 5/5

Q: What about the “Cumulative Mortality, male” value ([2]; 500 mg/kg IV daily × 3) of the same compound?
A: 5/5

Q: And the “Cumulative Mortality, total” value ([2]; 500 mg/kg IV daily × 3)?
A: all mice died

Q: What about the “Cumulative Mortality, total” value ([2]; 500 mg/kg IV daily × 3, listed as IPM Lysine Salt) of the same compound?
A: all animals died and 10/10

Q: What about the “Cumulative Mortality, female” value ([2]; 600 mg/kg IV daily × 3) of the same compound?
A: 5/5

Q: And the “Cumulative Mortality, male” value ([2]; 600 mg/kg IV daily × 3)?
A: 5/5

Q: What about the “Cumulative Mortality, total” value ([2]; 600 mg/kg IV daily × 3) of the same compound?
A: all mice died

Q: And the “Cumulative Mortality, total” value ([2]; 600 mg/kg IV daily × 3, listed as IPM Lysine Salt)?
A: all animals died and 10/10

Q: What about the “Sub-acute IV LD10” value ([2]; Mouse) of the same compound?
A: 133 mg/kg/day

Q: What about the “intravenous LD10” value ([2]; female mice) of the same compound?
A: 179 mg/kg

Q: What about the “intravenous LD50” value ([2]; female mice) of the same compound?
A: 197 mg/kg

Q: What about the “macroscopic findings at necropsy” value ([2]; main study, Day 15) of the same compound?
A: No treatment-related macroscopic findings

Q: And the “intravenous LD10” value ([2]; male mice)?
A: 140 mg/kg

Q: And the “intravenous LD50” value ([2]; male mice)?
A: 247 mg/kg

Q: What about the “intravenous LD10” value ([2]; mice, combined sexes) of the same compound?
A: 133 mg/kg

Q: What about the “intravenous LD50” value ([2]; mice, combined sexes) of the same compound?
A: 220 mg/kg

Q: And the “LD10, intravenous three day dose schedule” value ([2]; mouse, × 3 days)?
A: 133 mg/kg/day
